Values belong to the compound of their own block, whether it stands above or below them.
Legend:
KB [1] = test: Antiproliferative activity against wild-type human KB cells after 24 hrs by MTS assay; assay type: functional, cell-based
KB [2] = test: Antiproliferative activity against hydroxyurea-resistant human KB cells after 24 hrs by MTS assay; assay type: functional, cell-based
L1210 = test: Antiproliferative activity against mouse L1210 cells after 24 hrs by MTS assay; assay type: functional, cell-based; settings: L1210, 24 h
[3] = Antiproliferative activity against human T-lymphoblastic leukemia cells by MTT assay; assay type: functional; settings: Leukemia cell, read-out: CD50 (the source's name)
Artemia salina = test: Toxicity in brine shrimp; assay type: functional; settings: read-out: ED50 (the source's name)
MCF7 [4] = test: Antiproliferative activity against doxorubicin-resistant human MCF7 cells after 72 hrs by neutral red uptake assay; assay type: functional, cell-based; settings: Homo sapiens, MCF7, 72 h
KB [5] = test: Antiproliferative activity against human KB cells after 72 hrs by neutral red uptake assay; assay type: functional, cell-based; settings: Homo sapiens, KB, 72 h
MCF7 [6] = test: Antiproliferative activity against wild-type human MCF7 cells after 72 hrs by neutral red uptake assay; assay type: functional, cell-based; settings: Homo sapiens, MCF7, 72 h
K562 = test: Antiproliferative activity against human K562 cells by MTT assay; assay type: functional, cell-based
HeLa [7] = test: Antiproliferative activity against human HeLa cells after 24 hrs by MTT assay; assay type: functional, cell-based
A549 [8] = test: Antiproliferative activity against human A549 cells after 24 hrs by MTT assay; assay type: functional, cell-based; settings: A549, 24 h
HeLa [9] = test: Antiproliferative activity against human HeLa cells after 48 hrs by MTT assay; assay type: functional, cell-based
A549 [10] = test: Antiproliferative activity against human A549 cells after 48 hrs by MTT assay; assay type: functional, cell-based; settings: A549, 48 h

IC50 (KB [1]): 37.5 µM | IC50 (KB [2]): 15.3 µM
Structure (SMILES): O=C(NO)N/N=C/c1ccc(O)c(O)c1O

IC50 (KB [1]): 9.3 µM | IC50 (KB [2]): 8.9 µM | IC50 (L1210): 6.5 µM
Structure (SMILES): Cc1c2ccccc2c(/C=N/NC(=O)NO)c2ccccc12

IC50 (KB [1]): 27.2 µM | IC50 (KB [2]): 28 µM
Structure (SMILES): O=C(NO)N/N=C/c1ccc([N+](=O)[O-])s1

Structure (SMILES): C(=N\Cc1ccco1)/c1c2ccccc2cc2ccccc12
CC50 [3]: 67.8 µM

Structure (SMILES): CCC(C)C(/N=C1/c2c(O)cccc2Cc2cc(CO)cc(O)c21)C(=O)O (configuration not stated)
EC50 (Artemia salina): 246 µM

Structure (SMILES): CC(O)C(/N=C1/c2c(O)cccc2Cc2cc(CO)cc(O)c21)C(=O)O (configuration not stated)
EC50 (Artemia salina): 339 µM

IC50 (MCF7 [4]): 0.1 µM | IC50 (KB [5]): 0.5 µM | IC50 (MCF7 [6]): 0.4 µM
Structure (SMILES): C/N=C/c1c(O)c(O)c(C(C)C)c2c1C(=O)C(C1=C(C)C(=O)c3c(c(/C=N/C)c(O)c(O)c3C(C)C)C1=O)=C(C)C2=O

IC50 (K562): 37 µM
Structure (SMILES): S=C(N/N=C(\c1ccccc1)c1ccccn1)SCc1ccccc1

Structure (SMILES): O=C(O)C/N=C1/c2c(O)cccc2C([C@@H]2O[C@H](CO)[C@@H](O)[C@H](O)[C@H]2O)c2cc(CO)cc(O)c21 (some centres not stated)
EC50 (Artemia salina): 408 µM

Structure (SMILES): CC(/N=C1/c2c(O)cccc2C([C@@H]2O[C@H](CO)[C@@H](O)[C@H](O)[C@H]2O)c2cc(CO)cc(O)c21)C(=O)O (some centres not stated)
EC50 (Artemia salina): 130 µM

Structure (SMILES): O=C(O)C(Cc1ccccc1)/N=C1/c2c(O)cccc2C([C@@H]2O[C@H](CO)[C@@H](O)[C@H](O)[C@H]2O)c2cc(CO)cc(O)c21 (some centres not stated)
EC50 (Artemia salina): 312 µM

Structure (SMILES): CC(C)CC(/N=C1/c2c(O)cccc2C([C@@H]2O[C@H](CO)[C@@H](O)[C@H](O)[C@H]2O)c2cc(CO)cc(O)c21)C(=O)O (some centres not stated)
EC50 (Artemia salina): 32 µM

Structure (SMILES): CCC(C)C(/N=C1/c2c(O)cccc2C([C@@H]2O[C@H](CO)[C@@H](O)[C@H](O)[C@H]2O)c2cc(CO)cc(O)c21)C(=O)O (some centres not stated)
EC50 (Artemia salina): 35.2 µM

Structure (SMILES): Cc1cc(O)c2c(c1)C([C@@H]1O[C@H](CO)[C@@H](O)[C@H](O)[C@H]1O)c1cccc(O)c1/C2=N/C(CS)C(=O)O (some centres not stated)
EC50 (Artemia salina): 10.2 µM

Structure (SMILES): CSCCC(/N=C1/c2c(O)cccc2C([C@@H]2O[C@H](CO)[C@@H](O)[C@H](O)[C@H]2O)c2cc(CO)cc(O)c21)C(=O)O (some centres not stated)
EC50 (Artemia salina): 404 µM

Structure (SMILES): CC(C)C(/N=C1/c2c(O)cccc2C([C@@H]2O[C@H](CO)[C@@H](O)[C@H](O)[C@H]2O)c2cc(CO)cc(O)c21)C(=O)O (some centres not stated)
EC50 (Artemia salina): 19.1 µM

Structure (SMILES): CC(O)C(/N=C1/c2c(O)cccc2C([C@@H]2O[C@H](CO)[C@@H](O)[C@H](O)[C@H]2O)c2cc(CO)cc(O)c21)C(=O)O (some centres not stated)
EC50 (Artemia salina): 27.6 µM

Structure (SMILES): O=C(O)C/N=C1/c2c(O)cccc2Cc2cc(CO)cc(O)c21
EC50 (Artemia salina): 1030 µM

Structure (SMILES): CC(/N=C1/c2c(O)cccc2Cc2cc(CO)cc(O)c21)C(=O)O (configuration not stated)
EC50 (Artemia salina): 339 µM

Structure (SMILES): O=C(O)C(Cc1ccccc1)/N=C1/c2c(O)cccc2Cc2cc(CO)cc(O)c21 (configuration not stated)
EC50 (Artemia salina): 335 µM

Structure (SMILES): CC(C)CC(/N=C1/c2c(O)cccc2Cc2cc(CO)cc(O)c21)C(=O)O (configuration not stated)
EC50 (Artemia salina): 72.2 µM

Structure (SMILES): Cc1cc(O)c2c(c1)Cc1cccc(O)c1/C2=N/C(CS)C(=O)O (configuration not stated)
EC50 (Artemia salina): 423 µM

Structure (SMILES): CSCCC(/N=C1/c2c(O)cccc2Cc2cc(CO)cc(O)c21)C(=O)O (configuration not stated)
EC50 (Artemia salina): 836 µM

Structure (SMILES): CC(C)C(/N=C1/c2c(O)cccc2Cc2cc(CO)cc(O)c21)C(=O)O (configuration not stated)
EC50 (Artemia salina): 145 µM

IC50 (HeLa [7]): 1.3 µM | IC50 (A549 [8]): 1.4 µM | IC50 (HeLa [9]): 0.5 µM | IC50 (A549 [10]): 0.8 µM
Structure (SMILES): Clc1ccc(/C=N/c2ccccc2)c(Cl)c1

IC50 (HeLa [7]): 115 µM | IC50 (A549 [8]): 144 µM | IC50 (HeLa [9]): 33 µM | IC50 (A549 [10]): 88.4 µM
Structure (SMILES): Cc1ccc(/C=N/c2ccccc2)c(C)c1

IC50 (HeLa [7]): 42.2 µM | IC50 (A549 [8]): 207 µM | IC50 (HeLa [9]): 24.9 µM | IC50 (A549 [10]): 177 µM
Structure (SMILES): C(=N\c1ccccc1)/c1ccc2c(c1)OCO2

Source: ChEMBL document CHEMBL2396568, “An insight into synthetic Schiff bases revealing antiproliferative activities in vitro” (Bioorg Med Chem, 2013)
